Reference: US9486506B2 (Novo Nordisk A/S, priority 2011, dated 2016)
pEC50: −log10 of the molar value. Numbered stars: 1 amine (or outer) side, 2 acyl side, 3 side chain; on linkers, the order of the positions; unused ones are H or OH. Side chains are listed from the residue outwards. Peptide text beside a SMILES is read from it. * marks the point of attachment. C18 diacid = O=C(O)CCCCCCCCCCCCCCCCC(=O)*; γGlu = O=C(O)[C@H](CCC(=O)[*:2])N[*:1]; AEEA = NCCOCCOCC(=O)O

Columns and labels:
glucagon receptor = target: T1, glucagon receptor (Homo sapiens, UniProt P47871); experiment: Assay (I) Glucagon activity (cAMP biosensor, FLIPR); format: cell-based
T1 construct: expressed in transfected cells
T1 sequence (P47871 26-477): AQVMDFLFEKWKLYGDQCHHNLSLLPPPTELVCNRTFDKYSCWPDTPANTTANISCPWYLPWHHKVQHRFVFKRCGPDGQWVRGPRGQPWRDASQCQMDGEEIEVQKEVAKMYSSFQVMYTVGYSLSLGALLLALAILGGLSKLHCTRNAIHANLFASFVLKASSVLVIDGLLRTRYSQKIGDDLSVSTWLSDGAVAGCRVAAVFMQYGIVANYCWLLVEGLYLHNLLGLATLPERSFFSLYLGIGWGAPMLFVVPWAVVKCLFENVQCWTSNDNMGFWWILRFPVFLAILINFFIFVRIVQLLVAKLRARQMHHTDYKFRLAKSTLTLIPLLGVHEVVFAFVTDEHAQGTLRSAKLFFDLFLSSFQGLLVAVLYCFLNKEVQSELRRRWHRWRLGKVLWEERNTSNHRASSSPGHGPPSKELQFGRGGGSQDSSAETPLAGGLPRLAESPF

[1] = Assay (X) Chemical stability assessment by RP-UPLC; format: physicochemical; conditions: pH 8.15, 14 days at 37° C. vs 5° C., 333 μM
Procedure: Chemical Stability Assessment
Lyophilized samples were dissolved in buffer (see below for detailed compositions) to a final concentration of 333 μM and a pH of 8.15, and were incubated for 14 days at 5° C. and 37° C. followed by RP-UPLC analysis. Purity was defined as the area percentage of the main peak in relation to the total area of all integrated peaks in each chromatogram. Purity loss after 14 days at 37° C. was determined as the difference in purity between the samples incubated at 5° C. and 37° C., divided by the purity of the sample after incubation for 14 days at 5° C.
RP-UPLC analysis was performed using a Waters BEH130 2.1 mm×150 mm, 1.7 μm column operated at 50° C. and a flow rate of 0.4 mL/min using a mobile phase system consisting of typically A: 50 mM Phosphate, 10 w/w % Acetonitrile pH 3 and B: 80 v/v Acetonitrile. UV-detection was performed at 215 nm. The typical gradient profile used for most of the samples is shown below.
For some individual analogues eluting at substantially different retention times compared with the majority of analogues, some adjustments to the gradient profile were made to better enable purity assessment comparison across samples. Also the composition of the channel B mobile phase component was in some of the analyses exchanged for a 90 v/v % Acetonitrile solvent solution in an attempt to better handle carry-over of material from one injection to the next in the sequence. This was however compensated for by recalculating the gradient profile appropriately.
Buffer: • 50 mM Dinatriumphosphatdihydrat • 184 mM Propylenglycol • 58 mM Phenol • pH adjusted to 8.15 with H3PO4. In cases where pH was adjusted to 8.15 after re-suspension of analogues, 0.2 M NaOH was used. Assay (XI) Pharmacokinetic Study in Minipigs

SMILES	pEC50 (glucagon receptor)	Chemical stability [Purity loss/14 days 37 C.] [1]
CC[C@H](C)[C@H](NC(=O)[C@H](CC(=O)O)NC(=O)[C@H](CC(C)C)NC(=O)[C@H](Cc1ccc(O)cc1)NC(=O)[C@H](CCCCN)NC(=O)[C@H](CO)NC(=O)[C@H](Cc1ccc(O)cc1)NC(=O)[C@H](CC(=O)O)NC(=O)[C@H](CO)NC(=O)[C@@H](NC(=O)[C@H](Cc1ccccc1)NC(=O)[C@@H](NC(=O)CNC(=O)[C@H](CCC(N)=O)NC(=O)[C@H](CO)NC(=O)[C@@H](N)Cc1c[nH]cn1)[C@@H](C)O)[C@@H](C)O)C(=O)N[C@@H](CCCNC(=N)N)C(=O)N[C@@H](CCCNC(=N)N)C(=O)N[C@@H](C)C(=O)N[C@@H](CCC(N)=O)C(=O)N[C@@H](CC(=O)O)C(=O)N[C@@H](Cc1ccccc1)C(=O)N[C@H](C(=O)N[C@@H](CCCCNC(=O)CC[C@H](NC(=O)CC[C@H](NC(=O)COCCOCCNC(=O)COCCOCCNC(=O)CC[C@H](NC(=O)CCCCCCCCCCCCCCCCC(=O)O)C(=O)O)C(=O)O)C(=O)O)C(=O)N[C@@H](Cc1c[nH]c2ccccc12)C(=O)N[C@@H](CC(C)C)C(=O)N[C@@H](CC(C)C)C(=O)N[C@@H](CO)C(=O)N[C@H](C(=O)O)[C@@H](C)O)C(C)C [Example 11, N^ε24-[(4S)-4-carboxy-4-[[(4S)-4-carboxy-4-[[2-[2-[2-[[2-[2-[2-[[(4S)-4-carboxy-4-(17-carboxyheptadecanoylamino)butanoyl]amino]ethoxy]ethoxy]acetyl]amino]ethoxy]ethoxy]acetyl]amino]butanoyl]amino]butanoyl]-[Ile^16,Lys^24,Leu^27,Ser^28]-Glucagon]	10.08	6.2%
CC(C)C[C@H](NC(=O)[C@H](Cc1c[nH]c2ccccc12)NC(=O)[C@H](CCCCNC(=O)CC[C@H](NC(=O)CC[C@H](NC(=O)COCCOCCNC(=O)COCCOCCNC(=O)CC[C@H](NC(=O)CCCCCCCCCCCCCCCCC(=O)O)C(=O)O)C(=O)O)C(=O)O)NC(=O)[C@@H](NC(=O)[C@H](Cc1ccccc1)NC(=O)[C@H](CC(=O)O)NC(=O)[C@H](CCC(N)=O)NC(=O)[C@H](C)NC(=O)[C@H](CCCNC(=N)N)NC(=O)[C@H](CCCNC(=N)N)NC(=O)[C@@H](NC(=O)[C@H](CC(=O)O)NC(=O)[C@H](CC(C)C)NC(=O)[C@H](Cc1ccc(O)cc1)NC(=O)[C@H](CCCCN)NC(=O)[C@H](CO)NC(=O)[C@H](Cc1ccc(O)cc1)NC(=O)[C@H](CC(=O)O)NC(=O)[C@H](CO)NC(=O)[C@@H](NC(=O)[C@H](Cc1ccccc1)NC(=O)[C@@H](NC(=O)CNC(=O)[C@H](CCC(N)=O)NC(=O)[C@H](CO)NC(=O)[C@@H](N)Cc1c[nH]cn1)[C@@H](C)O)[C@@H](C)O)[C@@H](C)O)C(C)C)C(=O)N[C@@H](CC(C)C)C(=O)N[C@@H](CO)C(=O)N[C@H](C(=O)O)[C@@H](C)O [Example 12, N^ε24-[(4S)-4-carboxy-4-[[(4S)-4-carboxy-4-[[2-[2-[2-[[2-[2-[2-[[(4S)-4-carboxy-4-(17-carboxyheptadecanoylamino)butanoyl]amino]ethoxy]ethoxy]acetyl]amino]ethoxy]ethoxy]acetyl]amino]butanoyl]amino]butanoyl]-[Thr^16,Lys^24,Leu^27,Ser^28]-Glucagon]	10.12	7.0%
CC(C)C[C@H](NC(=O)[C@H](Cc1ccc(O)cc1)NC(=O)[C@H](CCCNC(=N)N)NC(=O)[C@H](CO)NC(=O)[C@H](Cc1ccc(O)cc1)NC(=O)[C@H](CC(=O)O)NC(=O)[C@H](CO)NC(=O)[C@@H](NC(=O)[C@H](Cc1ccccc1)NC(=O)[C@@H](NC(=O)CNC(=O)[C@H](CCC(N)=O)NC(=O)[C@H](CO)NC(=O)[C@@H](N)Cc1c[nH]cn1)[C@@H](C)O)[C@@H](C)O)C(=O)N[C@@H](CC(=O)O)C(=O)N[C@@H](Cc1ccccc1)C(=O)N[C@@H](CCCNC(=N)N)C(=O)N[C@@H](CCCNC(=N)N)C(=O)N[C@@H](C)C(=O)N[C@@H](CCC(N)=O)C(=O)N[C@@H](CC(=O)O)C(=O)N[C@@H](Cc1ccccc1)C(=O)N[C@H](C(=O)N[C@@H](CCCCNC(=O)CC[C@H](NC(=O)CC[C@H](NC(=O)COCCOCCNC(=O)COCCOCCNC(=O)CC[C@H](NC(=O)CCCCCCCCCCCCCCCCC(=O)O)C(=O)O)C(=O)O)C(=O)O)C(=O)N[C@@H](Cc1c[nH]c2ccccc12)C(=O)N[C@@H](CC(C)C)C(=O)N[C@@H](CC(C)C)C(=O)N[C@@H](CO)C(=O)N[C@H](C(=O)O)[C@@H](C)O)C(C)C [Example 17, N^ε24-[(4S)-4-carboxy-4-[[(4S)-4-carboxy-4-[[2-[2-[2-[[2-[2-[2-[[(4S)-4-carboxy-4-(17-carboxyheptadecanoylamino)butanoyl]amino]ethoxy]ethoxy]acetyl]amino]ethoxy]ethoxy]acetyl]amino]butanoyl]amino]butanoyl]-[Arg^12,Phe^16,Lys^24,Leu^27,Ser^28]-Glucagon] (H-HSQGTFTSDYSRYLDFRRAQDFVK([γGlu-γGlu-AEEA-AEEA-γGlu-C18 diacid])WLLST-OH)	8.78	3.1%
CC(C)C[C@H](NC(=O)[C@H](CC(=O)O)NC(=O)[C@H](CC(C)C)NC(=O)[C@H](Cc1ccc(O)cc1)NC(=O)[C@H](CCCNC(=N)N)NC(=O)[C@H](CO)NC(=O)[C@H](Cc1ccc(O)cc1)NC(=O)[C@H](CC(=O)O)NC(=O)[C@H](CO)NC(=O)[C@@H](NC(=O)[C@H](Cc1ccccc1)NC(=O)[C@@H](NC(=O)CNC(=O)[C@H](CCC(N)=O)NC(=O)[C@H](CO)NC(=O)[C@@H](N)Cc1c[nH]cn1)[C@@H](C)O)[C@@H](C)O)C(=O)N[C@@H](CCCNC(=N)N)C(=O)N[C@@H](CCCNC(=N)N)C(=O)N[C@@H](C)C(=O)N[C@@H](CCC(N)=O)C(=O)N[C@@H](CC(=O)O)C(=O)N[C@@H](Cc1ccccc1)C(=O)N[C@H](C(=O)N[C@@H](CCCCNC(=O)CC[C@H](NC(=O)CC[C@H](NC(=O)COCCOCCNC(=O)COCCOCCNC(=O)CC[C@H](NC(=O)CCCCCCCCCCCCCCCCC(=O)O)C(=O)O)C(=O)O)C(=O)O)C(=O)N[C@@H](Cc1c[nH]c2ccccc12)C(=O)N[C@@H](CC(C)C)C(=O)N[C@@H](CC(C)C)C(=O)N[C@H](C(=O)N[C@H](C(=O)O)[C@@H](C)O)[C@@H](C)O)C(C)C [Example 19, N^ε24-[(4S)-4-carboxy-4-[[(4S)-4-carboxy-4-[[2-[2-[2-[[2-[2-[2-[[(4S)-4-carboxy-4-(17-carboxyheptadecanoylamino)butanoyl]amino]ethoxy]ethoxy]acetyl]amino]ethoxy]ethoxy]acetyl]amino]butanoyl]amino]butanoyl]-[Arg^12,Leu^16,Lys^24,Leu^27,Thr^28]-Glucagon] (H-HSQGTFTSDYSRYLDLRRAQDFVK([γGlu-γGlu-AEEA-AEEA-γGlu-C18 diacid])WLLTT-OH)	9.12	4.3%
